Drawing on patent publication US9932354B2, “Imidazo-oxadiazole and imidazo-thiadiazole derivatives” (Ares Trading S.A., priority 2012, dated 2018), this text covers IC50 and Abtot/Ab42 selectivity ranges for 20 compounds.

Assay [1] relates to Amyloid-β peptide release (Aβ42), HEK cells overexpressing APP (HEK-APP). Put plainly: Amyloid-β peptide release (Aβ42) assay, AlphaLISA on supernatant of HEK-APP cells. The format is cell-based. The following applies: Homo sapiens, HEK293, 24 h incubation with compound, read-out: Ab42 IC50 Ranges. Put shortly: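 HEK-APP cells treated with compounds for 24 h at 37 °C, 5% CO2. Supernatant Aβ42 or total Aβ measured by AlphaLISA after 4.5 h with antibody beads (6E10 acceptor beads for total). IC50 values derived.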
For orientation: In Alpha technology, singlet oxygen from a donor bead excites a nearby acceptor bead.

The test system of assay [2] is Amyloid-β peptide release (AβTotal), HEK cells overexpressing APP (HEK-APP). Put plainly: Amyloid-β peptide release (AβTotal) assay, AlphaLISA on supernatant of HEK-APP cells. It is filed as cell-based. Conditions: ratio Abtot vs Ab42, HEK-APP cells, 24 h.

Some results are limits rather than exact numbers.

Regarding `Cc1ncc2sc(C(=O)N3CCCCC3c3ccccc3)nn12` (stereo not shown) [Example 108, (5-Methyl-imidazo[5,1-b][1,3,4]thiadiazol-2-yl)-(2-phenyl-piperidin-1-yl)-methanone], the IC50 in assay [1] lay within 500 to 1000 nM. Besides, the Abtot/Ab42 selectivity ranges entry in assay [2] is on record as “d (d: 10 fold > selectivity)”.
In the same order, the values of `Cc1ncc2sc(C(=O)N3CCCC(c4ccc(F)cc4)C3)nn12` (stereo not shown) [Example 109, [3-(4-Fluoro-phenyl)-piperidin-1-yl]-(5-methyl-imidazo[5,1-b][1,3,4]thiadiazol-2-yl)-methanone] are 1000 to 2200 nM and “d (d: 10 fold > selectivity)”.
`Cc1ncc2sc(C(=O)N3CCCC3c3ccc(Br)cc3)nn12` (stereo not shown) [Example 110, [2-(4-Bromo-phenyl)-pyrrolidin-1-yl]-(5-methyl-imidazo[5,1-b][1,3,4]thiadiazol-2-yl)-methanone]: the IC50 in assay [1] was under 100 nM. The Abtot/Ab42 selectivity ranges result in assay [2] is on record as “d (d: 10 fold > selectivity)”.
In the same order, the values of `Cc1ncc2sc(C(=O)NCc3ccccc3-c3ccccc3)nn12` [Example 111, 5-Methyl-imidazo[5,1-b][1,3,4]thiadiazole-2-carboxylic acid (biphenyl-2-ylmethyl)-amide] are 1000 to 2200 nM and “d (d: 10 fold > selectivity)”.
For `Cc1ncc2sc(C(=O)N3CCCC3c3ccc(C(F)(F)F)cc3)nn12` (stereo not shown) [Example 112, (5-Methyl-imidazo[5,1-b][1,3,4]thiadiazol-2-yl)-[2-(4-trifluoromethyl-phenyl)-pyrrolidin-1-yl]-methanone] the same measures were 100 to 500 nM and “d (d: 10 fold > selectivity)”.
Take `Cc1ncc2sc(C(=O)N3CCC[C@@H]3c3ccc(Br)cc3)nn12` [Example 113, (R)-(2-(4-bromophenyl)pyrrolidin-1-yl)(5-methylimidazo[5,1-b][1,3,4]thiadiazol-2-yl)methanone]: the IC50 in assay [1] is under 100 nM. In assay [2], the Abtot/Ab42 selectivity ranges result was “d (d: 10 fold > selectivity)”.
For `Cc1ncc2sc(C(=O)N3CCC[C@H]3c3ccc(Br)cc3)nn12` [Example 114, (S)-(2-(4-bromophenyl)pyrrolidin-1-yl) (5-methylimidazo[5,1-b][1,3,4]thiadiazol-2-yl)methanone] the same measures were 1000 to 2200 nM and “d (d: 10 fold > selectivity)”.
For `Cc1ncc2sc(C(=O)N3CCCCC3c3ccccc3Cl)nn12` (stereo not shown) [Example 115, [2-(2-Chloro-phenyl)-piperidin-1-yl]-(5-methyl-imidazo[5,1-b][1,3,4]thiadiazol-2-yl)-methanone] the same measures were 500 to 1000 nM and “d (d: 10 fold > selectivity)”.
For `Cc1ncc2sc(C(=O)N3CCCCC3c3cccc(C(F)(F)F)c3)nn12` (stereo not shown) [Example 116, (5-Methyl-imidazo[5,1-b][1,3,4]thiadiazol-2-yl)-[2-(3-trifluoromethyl-phenyl)-piperidin-1-yl]-methanone] the same measures were 1000 to 2200 nM and “d (d: 10 fold > selectivity)”.
Consider `Cc1ncc2sc(C(=O)N3CCCCC3Cc3ccccc3)nn12` (stereo not shown) [Example 117, (2-Benzyl-piperidin-1-yl)-(5-methyl-imidazo[5,1-b][1,3,4]thiadiazol-2-yl)-methanone], for which, in assay [1], the IC50 lay in the range of 1000 to 2200 nM. Moreover, the Abtot/Ab42 selectivity ranges result in assay [2] is listed as “d (d: 10 fold > selectivity)”.
As for `Cc1ccc(C2CCCN2C(=O)c2nn3c(C)ncc3s2)cc1` (stereo not shown) [Example 119, (5-Methyl-imidazo[5,1-b][1,3,4]thiadiazol-2-yl)-(2-p-tolyl-pyrrolidin-1-yl)-methanone], in assay [1], the IC50 is 100 to 500 nM. For the same compound, the Abtot/Ab42 selectivity ranges result in assay [2] is “d (d: 10 fold > selectivity)”.
In the same order, the values of `Cc1ncc2sc(C(=O)N3CCCC[C@H]3c3ccccc3)nn12` [Example 120, (5-Methyl-imidazo[5,1-b][1,3,4]thiadiazol-2-yl)-((S)-2-phenyl-piperidin-1-yl)-methanone] are 500 to 1000 nM and “d (d: 10 fold > selectivity)”.
For `Cc1ccccc1C1CCCN1C(=O)c1nn2c(C)ncc2s1` (stereo not shown) [Example 121, (5-Methyl-imidazo[5,1-b][1,3,4]thiadiazol-2-yl)-(2-o-tolyl-pyrrolidin-1-yl)-methanone], the IC50 in assay [1] was 500 to 1000 nM. The Abtot/Ab42 selectivity ranges result in assay [2] was “d (d: 10 fold > selectivity)”.
For `Cc1ncc2sc(C(=O)N3CCCC3c3ccccc3Cl)nn12` (stereo not shown) [Example 122, [2-(2-Chloro-phenyl)-pyrrolidin-1-yl]-(5-methyl-imidazo[5,1-b][1,3,4]thiadiazol-2-yl)-methanone] the same measures were 1000 to 2200 nM and “d (d: 10 fold > selectivity)”.
For the compound `Cc1ncc2sc(C(=O)N3CCCC3c3cccc(Br)c3)nn12` (stereo not shown) [Example 123, [2-(3-Bromo-phenyl)-pyrrolidin-1-yl]-(5-methyl-imidazo[5,1-b][1,3,4]thiadiazol-2-yl)-methanone], the IC50 in assay [1] fell in the range of 1000 to 2200 nM. Further, the Abtot/Ab42 selectivity ranges entry in assay [2] is on record as “d (d: 10 fold > selectivity)”.
In the same order, the values of `Cc1ncc2sc(C(=O)N3CCCC3c3ccc(F)cc3)nn12` (stereo not shown) [Example 124, [2-(4-Fluoro-phenyl)-pyrrolidin-1-yl]-(5-methyl-imidazo[5,1-b][1,3,4]thiadiazol-2-yl)-methanone] are 100 to 500 nM and “d (d: 10 fold > selectivity)”.
In the same order, the values of `COc1cc(NC(=O)Cc2cccc3ccccc23)ccc1-c1nn2c(C)ncc2s1` [Example 125, N-[3-Methoxy-4-(5-methyl-imidazo[5,1-b][1,3,4]thiadiazol-2-yl)-phenyl]-2-naphthalen-1-yl-acetamide] are 100 to 500 nM and “c (c: 50 fold > selectivity ≥ 10 fold)”.
Turning to `COc1cc(NC(=O)Cc2cc(C)ccc2C)ccc1-c1nn2c(C)ncc2s1` [Example 126, 2-(2,5-Dimethyl-phenyl)-N-[3-methoxy-4-(5-methyl-imidazo[5,1-b][1,3,4]thiadiazol-2-yl)-phenyl]-acetamide], in assay [1], the IC50 was in the range of 500 to 1000 nM. Further, in assay [2], the Abtot/Ab42 selectivity ranges entry is “d (d: 10 fold > selectivity)”.
For `Cc1ncc2sc(-c3ccc(C(=O)NCc4cccc5ccccc45)cc3)nn12` [Example 127, 4-(5-Methyl-imidazo[5,1-b][1,3,4]thiadiazol-2-yl)-N-naphthalen-1-ylmethyl-benzamide] the same measures were 500 to 1000 nM and “b (b: 100 fold > selectivity ≥ 50 fold)”.
In the case of `Cc1ncc2sc(-c3ccc(NC(=O)Cc4ccc(Cl)c(Cl)c4)cc3)nn12` [Example 128, 2-(3,4-Dichloro-phenyl)-N-[4-(5-methyl-imidazo[5,1-b][1,3,4]thiadiazol-2-yl)-phenyl]-acetamide], the IC50 in assay [1] is 500 to 1000 nM. Further, the Abtot/Ab42 selectivity ranges result in assay [2] is on record as “c (c: 50 fold > selectivity ≥ 10 fold)”.

A word on the IC50: it is the concentration that inhibits the measured activity by half.
